Reference: PMC12264554, “Application of preclinical absorption, distribution, metabolism, elimination in vitro techniques for the characterization and compound library optimization of novel antibiotic gallium salophen” (Drug Metabolism and Disposition, 2025)
Where two headings read alike, the source gives them in different places.

Key:
[1] = Caco-2 permeability screening; format: in vitro ADME; details: for Papp: Caco-2, ranked by Papp against control drugs, read-out: Permeability ranking; for efflux ratio at 20 µM: human
Experimental: Caco-2 cells were received from American Type Culture Collection and certified mycoplasma free. Cells were seeded on transwell plates (CoStar, growth area 0.33 cm^2/well, polycarbonate membrane, 0.33 μm pore size) between passage 20 and 27 and then analyzed between 21 and 25 days after wells were seeded to ensure enterocyte-like differentiation. Before assessing permeability, cells were washed once with Hank’s Balanced Salt Solution buffer, pH 7.4, and then incubated at 37 °C for 30 minutes. Transepithelial electrical resistance (TEER) was measured after equilibration before the experiment using an epithelial volt-ohmmeter (EVOM, World Precision Instruments), and cells were used if TEER > 250 Ω × cm^2. Cells were dosed to measure permeability from basolateral and apical sides at a concentration of 20 μM of test compound and 50 μM of Lucifer yellow. Lucifer yellow was used as a “zero permeability” marker to monitor the integrity of cell barrier. Samples were taken at 0 and 60 minutes from the donor side, and samples were taken at 30 and 60 minutes from the receiver side; media was replenished after the 30-minute sample was taken from both chambers. A calibration curve was prepared by serial dilution using the dosing solution in a 1:5 dilution. […] Samples were prepared for LC-MS/MS analysis by taking 100 μL of sample, adding 1 μM internal standard (GaSal-4 or GaSal-5), and crashing with 400 μL of methanol. Samples were centrifuged at 3000 rpm at 4 °C for 30 minutes, 200 μL of supernatant was transferred to a new plate, and 100 μL of water was added to each sample. Samples were vortexed and analyzed by LC-MS/MS as described earlier. […] To preliminarily evaluate organic cation transporter 1 (OCT1) or P-glycoprotein (P-gp)-dependent transport, transport studies were conducted with and without a 1 μM “inhibitor cocktail” alongside GaSal. […] The Papp for basolateral to apical, Papp apical to basolateral, and efflux ratio were reported for each compound. In order to calculate Papp, the concentration in the sampled time point was determined from the calibration curve and then converted to μg based on the volume of the chamber (0.2 mL for apical, 1.0 mL for basolateral). […] The calculation of Papp was determined using eq. […] Data are presented as the average ± SEM for each compound analyzed as n = 3 on 2 different days with 2 different cell line passages, for n = 6 total. GaSal is n = 3 on 3 different cell line passages since this was used as a test compound for the inhibition cocktail experiments.

S9 clearance assay = format: in vitro ADME; details: average ± SEM n = 3; for CLint scaled: S9 rat liver fraction, 2 μM, read-out: Predicted CLint (converted); for half-life at 2 µM: pH 7.4, S9 rat liver fraction
Experimental: Select library compounds were tested in triplicate at a concentration of 2 μM and incubated in 0.1 M potassium phosphate buffer containing 12 mM MgCl2 and 8 mM NADPH at pH 7.4 with 2.5 mg/mL of Sprague–Dawley S9 (Invitrogen). Incubations contained a final concentration of 2.5 mM UDP glucuronic acid, 0.10 mM adenosine 3’-phosphate 5’-phosphosulfate, 0.5 mM acetyl CoA, and 50 μg/mg protein alamethicin. All co-factors were from Sigma. Samples were incubated for 0, 3, 7, 12, 20, and 30 minutes. At the designated time point, the incubation reaction was stopped by adding 100 μL of ACN containing 1 μM of either GaSal-4 or GaSal-5 as the internal standard. […] A hundred microliter of supernatant was taken for LC-MS/MS analysis. 7-Ethoxycoumarin (Sigma) was used as a positive control in this experiment. Clearance was calculated according to eq. 3:(3) CLint=0.693/InVitroT1/2∗IncubationVolume/mgofS9∗165mgS9/gramofliver∗45gramsliver/kgofbodyweight
The average CLint ± SEM was determined for each compound for 3 replicates per time point.

CYP = experiment: 7-Ethoxycoumarin metabolism in microsomes in the presence of GaSal analogs (possible CYP inhibition); format: in vitro ADME, rat; details: co-incubation with 7-ethoxycoumarin
[2] = Microsomal clearance assay; format: in vitro ADME, rat
Experimental: Library compounds were tested in triplicate at a concentration of 2 μM and incubated in 0.1 M potassium phosphate buffer containing 12 mM MgCl2 and 8 mM NADPH at pH 7.4 with either 0.5 mg/mL of Sprague–Dawley liver microsomes (Invitrogen). Samples were incubated for 0, 3, 7, 12, 20, and 30 minutes. At the designated time point, the incubation reaction was stopped by adding 100 μL of ACN containing 1 μM of either GaSal-4 or GaSal-5 as the internal standards. […] 7-Ethoxycoumarin (Sigma) was used as a positive control in this experiment. Intrinsic clearance (CLint) was calculated using eq. 2:(2) CLint=0.693/InVitroT1/2∗IncubationVolume/mgofmicrosomes∗45mgmicrosomes/gramofliver∗45gramsliver/kgofbodyweight
The average CLint ± SEM was determined for each compound for 2 replicates per time point.

[3] = Caco-2, 20 μM, 30 and 60 min, average ± SEM, read-out: Papp apical to basolateral
[4] = Caco-2, 20 μM, 30 and 60 min, average ± SEM, read-out: Papp basolateral to apical
[5] = Caco-2, 20 μM, read-out: Efflux ratio B to A/A to B

| SMILES | Papp A→B [1, 3] [nm/s] | Papp B→A [1, 4] [nm/s] | Papp A→B ([1]; Caco-2, with OCT1 inhibitor cocktail (1 μM verapamil and cisplatin), read-out: Papp Apical to Basolateral) [nm/s] | Papp B→A ([1]; Caco-2, with OCT1 inhibitor cocktail (1 μM verapamil and cisplatin), read-out: Papp Basolateral to Apical) [nm/s] | Papp A→B ([1]; Caco-2, with PGP inhibitor cocktail (1 μM cannabidiol and itraconazole), read-out: Papp Apical to Basolateral) [nm/s] | Papp B→A ([1]; Caco-2, with PGP inhibitor cocktail (1 μM cannabidiol and itraconazole), read-out: Papp Basolateral to Apical) [nm/s] | Papp [1] [nm/s] | efflux ratio at 20 µM [1, 5] | efflux ratio at 20 µM ([1]; Caco-2, with OCT1 inhibitor cocktail, read-out: Efflux Ratio B to A/ A to B) | efflux ratio at 20 µM ([1]; Caco-2, with PGP inhibitor cocktail, read-out: Efflux Ratio B to A/ A to B) | CLint scaled (S9 clearance assay) [L/h/kg] | half-life at 2 µM (S9 clearance assay) [h] | 7-ethoxycoumarin metabolism when co-incubated (possible CYP inhibition) (CYP) | CLint scaled ([2]; 2 μM, 0.5 mg/mL rat liver microsomes, NADPH, 30 min, read-out: experimental CLint (microsomes)) [L/h/kg] | decrease in peak area over time ([2]; rat liver microsomes, 30-minute period) [%] |
| --- | --- | --- | --- | --- | --- | --- | --- | --- | --- | --- | --- | --- | --- | --- | --- |
| Oc1ccccc1/C=N/c1ccccc1/N=C/c1ccccc1O.[Ga+3] [GaSal, gallium salophen] | 12 ± 0.1 | 136 ± 17.8 | 18.1 ± 0.3 | 147 ± 32.6 | 13.3 ± 0.3 | 168 ± 38.6 | 11.2 to 35.1 | 11.3 | 8.1 | 12.6 | 8.17 | 0.59 ± 0.15 | CYP inhibition | 1.28 to 3.78 | – |
| Oc1cc(OCCN2CCOCC2)ccc1C=Nc1ccccc1N=Cc1ccc(OCCN2CCOCC2)cc1O.[Ga+3] [GaSal-3] | 0.4 ± 0.1 | 11.6 ± 0.9 | – | – | – | – | < 11.2 | 29 | – | – | 1.81 | 2.67 ± 1.21 | – | – | < 10 |
| O=C(O)CCOc1ccc(C=Nc2ccccc2N=Cc2ccc(OCCC(=O)O)cc2O)c(O)c1.[Ga+3] [GaSal-4] | < 0.1 | 14.4 ± 1.9 | – | – | – | – | < 11.2 | – | – | – | 23.9 | 0.2 ± 0.1 | – | – | – |
| COCCOCCOc1ccc(C=Nc2ccccc2N=Cc2ccc(OCCOCCOC)cc2O)c(O)c1.[Ga+3] [GaSal-5] | 0.3 ± 0.1 | 32 ± 2 | – | – | – | – | < 11.2 | 107 | – | – | 1.67 | 2.88 ± 3.37 | – | – | – |
| COCCOc1ccc(/C=N/c2ccccc2/N=C/c2ccc(OCCOC)cc2O)c(O)c1.[Ga+3] [GaSal-13] | 6.1 ± 0.1 | 9.1 ± 1 | – | – | – | – | < 11.2 | 1.49 | – | – | – | – | – | – | – |
| COCCOc1ccc(/C=N/c2ccccc2N=C(C)c2ccccc2O)c(O)c1.[Ga+3] [GaSal-14] | < 0.1 | 11.9 ± 4 | – | – | – | – | < 11.2 | – | – | – | – | – | – | – | – |
